In ChEMBL document CHEMBL1150714, “1,3,7-Trimethylguanine from the Sponge Latrunculia brevis” (J Nat Prod, 1987):

Test system: P388
Test: Cytotoxicity against mouse P388 cells
Type: functional, cell-based

With `Cn1c(=O)c2c(ncn2C)n(C)c1=N` the EC50 was > 10 mg/L.
